Experiment: gradient 5% acetonitrile 3 min, to 50% in 2 min, to 85% in 15 min, held 3 min, 100 µL/min
Details: column: Zorbax Extend-C18 2.1 x 50 mm; eluents: water / acetonitrile, 0.1% formic acid
Method in brief: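 Standards, all pure, were combined into mixtures of ~100 molecules and run at 100 μL/min on a Zorbax Extend-C18 column (2.1 × 50 mm, 1.8 μm) with water and acetonitrile, each containing 0.1% formic acid. A coupled quadrupole time-of-flight mass spectrometer operated in positive and negative ionization mode. Retention time values come from computationally picked adduct peaks, each inspected manually.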

SMILES | RP-LC retention time [s]
COc1cccc(CNC(=O)C2CCN(Cc3cn(C)c4ccc(Cl)cc34)CC2)c1 | 700
Cc1[nH]c(C)c(S(=O)(=O)N2CCC(C(=O)NC3CCCCC3)CC2)c1C(=O)N1CCCCC1 | 720
Cc1cc(C)cc(S(=O)(=O)N2CCN(CCc3cn(C)c4ncccc34)CC2)c1 | 652
CCOC(=O)c1nc(N(C)c2ccccc2F)c2ccccc2n1 | 931
CCNC(=O)NC1CCN(c2nc3cccnc3n(Cc3ccccc3)c2=O)CC1 | 877
Cc1cccc(C(=O)N2N=C(c3ccco3)CC2c2cccs2)c1 (stereo not drawn) | 940
CC(C)n1c(=O)sc2cc(S(=O)(=O)N3CCC(C(=O)NCCc4cccs4)CC3)ccc21 | 910
CC(C)n1c(=O)sc2cc(S(=O)(=O)N3CCC(C(=O)Nc4ccc(F)cc4)CC3)ccc21 | 973
O=C(N[C@H]1C[C@@H]2C[C@H]1CN2C(=O)NCc1ccco1)c1ccccc1 | 652
CCc1ccccc1NC(=O)C1CCN(S(C)(=O)=O)c2cc(Cl)ccc2O1 (stereo not drawn) | 944
CCOC(=O)C1CCN(c2cc3c(cc2NC(=O)NCCC(C)C)n(C)c(=O)n3C)CC1 | 823
CN1CC[C@@]2(C)c3cc(OC(=O)Nc4ccccc4)ccc3N(C)[C@@H]12 | 718
CCn1cc(-c2ccccc2)cc1C(=O)NCc1ccccn1 | 703
COc1ccc(Cc2nc3nccc(-c4cccs4)n3n2)cc1 | 871
O=C1[C@H]2CCCC[C@H]2C(=O)N1CCCCN1CCN(c2nsc3ccccc23)CC1 | 775
COc1cc(NC(=O)C2=Cc3cc(Br)ccc3OC2)cc(OC)c1OC | 997
c1coc(-c2nnc(Nc3nc4cc5c(cc4s3)OCO5)o2)c1 | 694
CN1C(=O)CCC2(CNC(=O)Nc3ccccc3)CCC=C12 (stereo not drawn) | 721
CCNc1nccc(N2CCC(CC(=O)NCc3ccc(OC)c(OC)c3)CC2)n1 | 614
CCOC(=O)c1c(C)[nH]c(C(=O)N2CCC(CC(=O)NC3CCCC3)CC2)c1C | 720
CC(C)CC(=O)Nc1ccc2c(c1)nc(CN1CCOCC1)n2C(C)C | 630
CCOC(=O)Cc1ccc(NC(=O)NC2CCN(c3ccccc3)C2=O)cc1 (stereo not drawn) | 742

SMILES | RP-LC retention time [s]
COC(=O)c1ccc(NC(=O)C(=O)NCC2(c3ccc(F)cc3)CC2)cc1 | 834
Cc1cccc2c(=O)n(C3CCN(C(=O)Nc4ccccc4)CC3)cnc12 | 751
Cc1ccc(S(=O)(=O)NCc2ccccc2)cc1 | 908
Cc1ccc(-c2noc(C3CCCN3C(=O)C3CC(=O)N(c4ccc(C)c(C)c4)C3)n2)cc1 (stereo not drawn) | 1050
O=C(CN1CCN(Cc2ccccc2)C1=O)N1CCN(c2ccc(F)cc2)CC1 | 813
CCCCCn1c(=O)c2c(nc3n2CCCCN3c2ccc(OCC)cc2)n(C)c1=O | 1190
NC(=O)CCC(C(=O)O)N1C(=O)C2C3CCC(C3)C2C1=O (stereo not drawn) | 638
NC(=O)c1ccccc1NC(=O)C1CCN(C(=O)c2ccccc2F)CC1 | 669
CC(CCNC(=O)c1cc(S(=O)(=O)N2CCCC2)ccc1Cl)N1CCCC1 (stereo not drawn) | 601
Cc1ccc(Cn2cc(-c3noc(-c4ccc(N(C)C)cc4)n3)nn2)cc1 | 1070
CCOC(=O)c1c(S(=O)(=O)N2CCC(C(=O)Nc3ccc(C)c(F)c3)CC2)c(C)n(CC)c1C | 984
COc1ccc(CNC(=O)Cn2ncc3c(c2=O)N(C2CC2)C(=O)CS3)cc1 | 667
CCC(C)C(NC(=O)Cc1ccc(OC)cc1Cl)C(=O)Nc1nc2ccccc2[nH]1 (stereo not drawn) | 772
COc1ccc(CNC(=O)c2c(O)c3cccnc3[nH]c2=O)cc1OC | 804
CC(C)(C)c1ccc(C(=O)NCc2ccco2)cc1 | 873
Cc1ncc2c(n1)C[C@@H]1CC[C@H]2N1C(=O)NCc1ccccc1 | 642
COc1ccc(CNC(=O)Cn2nc3c4ccccc4ncn3c2=O)cc1 | 651
CCc1ccc(NC(=O)N2CCC(N3CCN(Cc4ccc(F)cc4)C(=O)C3=O)CC2)cc1 | 769
Cc1cccc(NS(=O)(=O)c2cc3n(c2)CCCN(C)C3=O)c1C | 711
CCn1cc(-c2nc(CC(=O)Nc3ccc(F)cc3C)cs2)c2cccnc21 | 902
CCn1cc(C)c(C(=O)O)c1CC(=O)N(C)c1ccc(C)c(C)c1 | 1000
Cn1cc2c(N3CCSCC3)nc(C(=O)N3CCN(C4CCCC4)CC3)nc2n1 | 579

SMILES | RP-LC retention time [s]
Cn1ncc2c3ccccc3n(CCCC(=O)NCc3ccc4c(c3)OCO4)c2c1=O | 751
Cc1cccc(NC(=O)NCC(c2cccnc2)c2cn(C)c3ccccc23)c1C (stereo not drawn) | 719
CSc1ccc(-c2noc(Cn3c(=O)n(-c4ccccc4)c(=O)c4sccc43)n2)cc1 | 1020
COc1ccc(NC(=O)CSc2cc(N3CCN(c4ccccc4OC)CC3)ncn2)c(OC)c1 | 791
CCC(=O)N1CCc2cc(N3CC(C(=O)Nc4ccc(OC)cc4)CC3=O)ccc21 (stereo not drawn) | 714
CCc1nc(-c2csc(S(=O)(=O)N3CCCC(C(=O)NCc4ccccc4)C3)c2)no1 (stereo not drawn) | 960
COc1ccc(-c2ncc3c(n2)CCN(S(=O)(=O)c2cccc(C)c2)C3)cc1 | 1070
COc1ccccc1N1CCN(CC(O)COc2cccc3ccccc23)CC1 (stereo not drawn) | 838
COc1ccccc1-c1nc(Cn2nnc(-c3nc(-c4ccc(Cl)c(F)c4)no3)c2C)c(C)o1 | 1240
CCNC(=O)C1CCCN(C(=O)Nc2ccc(NC(=O)Nc3ccc(OC)cc3)cc2)C1 (stereo not drawn) | 678
COc1ccc(N2CCN(c3ncc4c(n3)CCN(Cc3ccc(C)cc3)C4)CC2)cc1 | 675
COC(=O)c1ccccc1S(=O)(=O)N1CCc2c(c(-c3nnc(-c4ccccc4)o3)nn2C)C1 | 907
O=C(COc1ccccc1)N1CCN(c2nc(CN3CCCC3)cs2)CC1 | 623
CCN(CC)S(=O)(=O)c1ccc2nc(N3CCN(C4CCCCC4)CC3)cnc2c1 | 674
O=C(Nc1ccc(Cl)cc1F)C1CCc2nc(N3CCOCC3)ncc2C1 (stereo not drawn) | 856
O=C(CCn1cnc2cc(-c3noc(-c4ccc(Cl)cc4)n3)ccc21)N1CCOCC1 | 754
COc1ccc(C2Cn3nnc(-c4nc(-c5ccc(OC(C)C)cc5)no4)c3CO2)cc1 (stereo not drawn) | 1250
CSc1nnc(-c2nn(C)c3c2CN(C(=O)c2ccc(C)cc2)CC3)n1C | 716
Cc1ccc(S(=O)(=O)NCc2ccccn2)c(C)c1C | 626
Cc1ccc(C)c2c(=O)c3c([nH]c12)CCN(CC(=O)Nc1ccccc1)C3 | 627
CCCC(=O)N1CCC(C(=O)N2c3ccccc3CC2C)CC1 (stereo not drawn) | 794
CCN1C(=O)c2cccnc2Sc2cc(CNC(=O)c3ccc(OC)c(F)c3)ccc21 | 763

SMILES | RP-LC retention time [s]
CCc1ccc(NC(=O)NCCn2c(-c3ccncc3)nc3cccnc32)cc1 | 623
CCC(CN1CCOCC1)NC(=O)c1c2c(nc3ccccc13)C(=O)N(C1CCCCC1)C2 (stereo not drawn) | 610
Cc1ccc(-c2noc(-c3sccc3NC(=O)C3(c4ccccc4)CC3)n2)cc1 | 828
Clc1ccc(OCc2nc3c4ccccc4ncn3n2)cc1 | 951
COCCNC(=O)c1nc(Nc2ccc(C)cc2)c2ccccc2n1 | 698
CNC(=O)c1sc2nc(-c3cccc(F)c3)c(NCCCOC)n2c1C | 777
COCCOC(=O)C1=C(C)NC(C)=C(C(=O)OC/C=C/c2ccccc2)C1c1cccc([N+](=O)[O-])c1 (stereo not drawn) | 1210
Cc1ccc(-c2nnc(CC(=O)NCC3CCCO3)o2)cc1 (stereo not drawn) | 667
CCN(CC)S(=O)(=O)c1ccc2c(c1)CC(C(=O)NCCN1CCCCC1)N2C(C)=O (stereo not drawn) | 610
CCn1c(C2CCN(S(=O)(=O)Cc3ccc(F)cc3Cl)C2)nc2ccncc21 (stereo not drawn) | 561
Cc1cc(OCC(=O)Nc2ccccc2Cl)nc(N2CCN(c3ccccc3)CC2)n1 | 993
O=C(Nc1ccsc1-c1nnc(C2CC2)o1)c1ccsc1 | 1170
Cc1ccc(Nc2c(-c3ccc(C)cc3)nc3ccccn23)cc1 | 741
Cc1ccn2c(Nc3ccc4c(c3)OCO4)c(-c3ccccc3)nc2c1 | 690
Cc1cc(C)n(-c2cc(N3CCCC(C(=O)Nc4cc(C)on4)C3)ncn2)n1 (stereo not drawn) | 762
Cc1ccc(-c2nnc(-c3nc(NCc4ccccn4)c4ccccc4n3)o2)cc1 | 703
Cc1ccc(-c2nc3cnccn3c2Nc2ccc3c(c2)OCCO3)cc1 | 841
CCc1ccc(-c2nc(C3CC(=O)N(c4ccc(Cl)cc4)C3)no2)cc1 (stereo not drawn) | 1020
COc1ccc(OC)c(-c2ccc(=O)n(CCc3nc(-c4ccc(F)cc4)no3)n2)c1 | 977
CCC(=O)N1CCc2cc(N3CC(C(=O)Nc4ccc(OC)cc4C)CC3=O)ccc21 (stereo not drawn) | 720
O=C1CC(NC(=O)COc2ccc(F)cc2)CN1 (stereo not drawn) | 586
CCOc1ccc(C(O)CN2CCN(c3ccccn3)CC2)cc1Cl (stereo not drawn) | 591

Source: the METLIN SMRT retention time set (Domingo-Almenara et al. 2019)
